In test [1] the target is T1, catalytic subunit β1 of a proteasome (caspase-like activity) (Homo sapiens, UniProt P28072).
T1 construct: purchased Bioscience
The note with it: reported by Kaiser et al., Chem. Bio. Chem., 2004; cited from earlier work.

A further test addresses T2, 20S proteasome (Homo sapiens, UniProt P28072+P28074+Q99436).
T2 construct: purchased Bioscience
The test can be described thus: Affinity with a proteasome, evaluated from the 20S proteasome activity assay. Type of test: biochemical. Particulars: concluded from the concentration dependent inhibitory activity. As for the experimental part:
(§1) In Reference Example 2, the proteasome inhibitory activity of TMP-CANDDY_DMT and the affinity of TMP-CANDDY_DMT with a proteasome were evaluated. As a positive control, MG-132 as a proteasome inhibitor was used.
(§2) For evaluation, 20S Proteasome StressXpress™ Assay Kit Gold (Bioscience) was used. AMC was measured by using Multi-Detection Microplate Reader (Synergy HT, BIO-TEK). The AMC was produced by cleaving the C-terminus of an AMC-binding proteasome fluorescence substrate specific to β subunits of a 20S proteasome, including β5 (chymotrypsin-like activity), β2 (trypsin-like activity), and β1 (caspase-like activity). The measuring wavelengths were 360 nm for excitation light (Ex.), and 460 nm for fluorescence (Em.).
(§3) In Reference Example 6, as in Reference Example 2, a proteasome inhibitory activity of TMP-CANDDY_ALLN and an affinity of TMP-CANDDY_ALLN with a proteasome were evaluated.

The target of test [2] is T3, catalytic subunit β5 of the proteasome (chymotrypsin-like activity) (Homo sapiens, UniProt P28074).
T3 construct: purchased Bioscience
Briefly: 20S Proteasome StressXpress Assay Kit, AMC substrate, β5. Type of test: biochemical. As to the method: as §1, §2, §3

The test system of test [3] is ecDHFR protein (fusion protein of an ecDHFR protein and GFP through a HA tag). Type of test: cell-based, human. The note with it: HeLa cells, 24 hours after addition, vs DMSO control.
Test [4] deals with T4, catalytic subunit β2 of the proteasome (trypsin-like activity) (Homo sapiens, UniProt Q99436).
T4 construct: purchased Bioscience
Briefly: 20S Proteasome StressXpress Assay Kit, AMC substrate, β2. Type of test: biochemical. As to the method:
as §1, §2, §3

Test [5] has as its target T1, catalytic subunit β1 of a proteasome (caspase-like activity). The test can be described thus: 20S Proteasome StressXpress Assay Kit, AMC substrate, β1. The test is classed as biochemical. As for the experimental part: as §1, §2, §3
In test [6] the test system is ecDHFR protein (fusion protein of an ecDHFR protein and GFP through a HA tag). Briefly: Western blot of degradation of forcibly expressed ecDHFR protein in HeLa cells. Type of test: cell-based, human. In general terms: A western blot detects proteins with antibodies after separation by electrophoresis.
Test [7] concerns senescence-associated acidic β-galactosidase (SA-β-gal) inducing TIG3 cells. Briefly: FACS analysis of SA-β-gal in doxorubicin senescence-induced TIG3 cells (anti-aging action). Type of test: cell-based, human. Particulars: doxorubicin 150 nM alone vs no doxorubicin. As to the method:
In Example 5, an anti-aging action in a senescence-associated acidic β-galactosidase (SA-β-gal) inducing TIG3 cells (human embryonic fibroblast) in which TIBC-CANDDY_MLN had been added was evaluated by FACS analysis.
TIG3 cells as normal cells were seeded in a 24-well plate at a cell density of 8×10^4 cells/well, and then cultured under conditions of 37° C. and 5 vol % CO2 for 16 hours.
After 16 hours from cell seeding, doxorubicin was added to each well at 150 nM/well to induce cellular senescence. As a medium, a serum-free medium (37° C.) in which 1 mass % L-glutamine solution (Sigma-Aldrich) was added to D-MEM (high D-glucose, phenol red, sodium pyruvate (Wako Pure Chemical Industries, Ltd.)) was used. It is noted that the L-glutamine solution was added immediately before use. After the addition of doxorubicin, culture was performed under conditions of 37° C. and 5 vol % CO2 for 24 hours.
After 24 hours from induction of senescence, TIBC-CANDDY_MLN was added to TIG3 cells as follows. As a medium, a serum-free medium (37° C.) in which 1 mass % L-glutamine solution (Sigma-Aldrich) was added to D-MEM (high D-glucose, phenol red, sodium pyruvate (Wako Pure Chemical Industries, Ltd.)) was used. It is noted that the L-glutamine solution was added immediately before use. A DMSO solution containing TIBC-CANDDY_MLN was mixed with the medium so that the concentration of DMSO was 1 vol %, and added to each well at 500 μL/well, and cultured under conditions of 37° C. and 5 vol % CO2 for 48 hours. As a control, DMSO was used.
For quantification of SA-β-gal as a senescence marker, a commercially available kit (Cellular Senescence Detection Kit-SPiDER-βGal (DOJINDO LABORATORIES)) was used. […]
A BD FACSCanto™ II (BD Biosciences) was used for flow cytometry to detect SA-β-gal labeled with FITC. […] A histogram of the FITC strength was created by an analysis software FlowJo™ (TOMY Digital Biology Co., Ltd.), and the senescence suppressing action by TIBC-CANDDY_MLN was evaluated from a shift in the histogram.

Molecules are shown by their SMILES. Non-standard residues stand in square brackets, D forms with d. Residues, ends and D or L forms follow the SMILES beside them. Nle = CCCC[C@H](N)C(=O)O

For the compound `CCCC[C@@H](C=O)NC(=O)[C@H](CC(C)C)NC(=O)[C@H](CC(C)C)NC(C)=O` [ALLN, Calpain Inhibitor I] (Ac-Leu-Leu-[Nle]-aldehyde), the “inhibition of β1” value in test [1] is listed as “not inhibited”.
As for `CCCC[C@H](NC(=O)[C@H](CC(C)C)NC(=O)[C@H](CC(C)C)NC(C)=O)C(=O)NCCCCCCNC(=O)COc1c(OC)cc(Cc2cnc(N)nc2N)cc1OC` [TMP-CANDDY_ALLN], the “affinity with a proteasome” value at 20S proteasome is recorded as “had an affinity with a proteasome”. For the same compound, in test [2], the “concentration dependence of inhibitory activity against β5” value is recorded as “in a concentration dependent manner” and the “proteasome inhibitory activity against β5 compared with the reference proteasome inhibitor” value is on record as “the inhibitory activity was weakened”. Further, in test [3], the “degradation (knockdown) of the ecDHFR protein (shift of GFP/DsRed graph, FACS)” value is on record as “degradation of the ecDHFR protein was induced”. For the same compound, in test [4], the “concentration dependence of inhibitory activity against β2” value is “in a concentration dependent manner” and the “proteasome inhibitory activity against β2 compared with the reference proteasome inhibitor” value is reported as “the inhibitory activity was weakened”. Further, the “concentration dependence of inhibitory activity against β1” value in test [5] is “in a concentration dependent manner”.
On to `COc1nc(NCCCCCCNC(=O)COc2c(OC)cc(Cc3cnc(N)nc3N)cc2OC)nc(OC)n1` [TMP-CANDDY_DMT], for which the “affinity with a proteasome” value at 20S proteasome is recorded as “moderate affinity”. In addition, in test [2], the “concentration dependence of inhibitory activity against β5” value was “increased in a concentration dependent manner” and the “proteasome inhibitory activity against β5 compared with the reference proteasome inhibitor” value was “significantly lower proteasome inhibitory activity as compared with MG-132”. Further, the “amount of the ecDHFR protein (Western blot)” value in test [6] (24 hours after addition, cycloheximide 50 μg/mL added at 12 hours) is listed as “reduced”. In test [6] (both TMP-CANDDY_DMT and bortezomib added, compared with TMP-CANDDY_DMT alone), the “degradation of the ecDHFR protein when bortezomib is added as well” value was “degradation of the ecDHFR protein was inhibited”. Further, the “degradation (knockdown) of the ecDHFR protein (shift of GFP/DsRed graph, FACS)” value in test [3] is “degradation of the ecDHFR protein was induced”. In addition, in test [4], the “concentration dependence of inhibitory activity against β2” value is given as “increased in a concentration dependent manner” and the “proteasome inhibitory activity against β2 compared with the reference proteasome inhibitor” value is given as “significantly lower proteasome inhibitory activity as compared with MG-132”. Moreover, in test [5], the “concentration dependence of inhibitory activity against β1” value is “increased in a concentration dependent manner” and the “proteasome inhibitory activity against β1 compared with the reference proteasome inhibitor” value was “significantly lower proteasome inhibitory activity as compared with MG-132”.
Regarding `COc1cccc2c1C(=O)c1c(O)c3c(c(O)c1C2=O)C[C@@](O)(C(=O)CO)C[C@@H]3O[C@H]1C[C@H](N)[C@H](O)[C@H](C)O1` [doxorubicin, reference compound], the “shift to SA-β-gal (senescence marker) positive (FACS histogram)” value in test [7] is given as “a shift to SA-β-gal (senescence marker) positive was observed”.

Values taken from patent publication US11007269B2, “P53 degradation inducing molecule and pharmaceutical composition” (Tokyo University of Science Foundation, priority 2016, dated 2021).
